In patent US9474790B2, “Stable, protracted GLP-1/glucagon receptor co-agonists for medical use” (Novo Nordisk A/S, priority 2013, dated 2016):
Numbered stars: 1 amine (or outer) side, 2 acyl side, 3 side chain; on linkers, the order of the positions; unused ones are H or OH. Square brackets hold non-standard residues; d marks the D form. Side chains are listed from the residue outwards. Peptide text beside a SMILES is read from it. * marks the point of attachment. C18 diacid = O=C(O)CCCCCCCCCCCCCCCCC(=O)*; γGlu = O=C(O)[C@H](CCC(=O)[*:2])N[*:1]; Ac4c = NC1(C(=O)O)CCC1; Aib = CC(C)(N)C(=O)O

Assays:
[1] = Thioflavin T (ThT) fibrillation assay for physical stability; assay type: physicochemical; settings: 250 μM in 10 mM HEPES buffer, pH 7.5, 37° C., shaking 960 rpm
Method in brief: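 Peptide at 250 μM in 10 mM HEPES pH 7.5 with 1 μM ThT, at 37° C with 960 rpm orbital shaking. Fluorescence (ex 444/em 485 nm) read every 20 min after 10 min pre-incubation; sigmoidal fit gives lag time (t0−2τ) and kapp (1/τ). Recovery is RP-HPLC peptide in the centrifuged, 0.22 μm-filtered supernatant as % of initial.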

[2] = Chemical stability assessment by RP-UPLC; assay type: physicochemical; settings: 333 μM, 8 mM phosphate buffer pH 7.3, 37° C. vs 5° C.
Method in brief: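 Purity loss = (purity after 14 days at 5° C. minus that at 37° C.) relative to the 5° C. value, purity being main-peak area % by RP-UPLC with UV at 215 nm. Samples were 333 μM in 8 mM phosphate, pH 7.3; gradient adjusted for outlying retention times.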

Question: For `CC(C)C[C@H](NC(=O)[C@H](Cc1ccc(O)cc1)NC(=O)[C@H](CCCCN)NC(=O)[C@H](CO)NC(=O)[C@H](CC(C)C)NC(=O)[C@H](CC(=O)O)NC(=O)[C@H](CO)NC(=O)[C@@H](NC(=O)[C@H](Cc1ccccc1)NC(=O)[C@@H](NC(=O)CNC(=O)[C@H](CCC(N)=O)NC(=O)C1(NC(=O)[C@@H](N)Cc2c[nH]cn2)CCC1)[C@@H](C)O)[C@@H](C)O)C(=O)N[C@@H](CCC(=O)O)C(=O)N[C@@H](CO)C(=O)N[C@@H](CCCCN)C(=O)N[C@@H](CCCNC(=N)N)C(=O)N[C@@H](C)C(=O)N[C@@H](CCCNC(=N)N)C(=O)N[C@@H](CCC(=O)O)C(=O)N[C@@H](Cc1ccccc1)C(=O)N[C@H](C(=O)N[C@@H](CCC(N)=O)C(=O)N[C@@H](Cc1c[nH]c2ccccc12)C(=O)N[C@@H](CC(C)C)C(=O)N[C@@H](CC(C)C)C(=O)N[C@@H](CCCCNC(=O)CC[C@H](NC(=O)CC[C@H](NC(=O)[C@H](CO)NC(=O)[C@H](CCC(=O)O)NC(=O)[C@H](CO)NC(=O)CC[C@H](NC(=O)CC[C@H](NC(=O)CCCCCCCCCCCCCCCCC(=O)O)C(=O)O)C(=O)O)C(=O)O)C(=O)O)C(=O)N[C@H](C(N)=O)[C@@H](C)O)C(C)C` [Example 68, N^ε28-[(4S)-4-carboxy-4-[[(4S)-4-carboxy-4-[[(2S)-2-[[(2S)-4-carboxy-2-[[(2S)-2-[[(4S)-4-carboxy-4-[[(4S)-4-carboxy-4-(17-carboxyheptadecanoylamino)butanoyl]amino]butanoyl]amino]-3-hydroxypropanoyl]amino]butanoyl]amino]-3-hydroxypropanoyl]amino]butanoyl]amino]butanoyl]-[Acb2,Leu10,Glu15,Lys17,Arg20,Glu21,Leu27,Lys28]-Glucagon amide] (H-H[Ac4c]QGTFTSDLSKYLESKRAREFVQWLLK([γGlu-γGlu-Ser-Glu-Ser-γGlu-γGlu-C18 diacid])T-NH2; N-terminus assumed), which THT assay Lag time (Ex. 76) [1] is on record?
Answer: 45 h

Question: And the “Purity loss; 14 days at 37° C.” value [2]?
Answer: 3%

Question: For `CC(C)C[C@H](NC(=O)[C@H](Cc1ccc(O)cc1)NC(=O)[C@H](CCCCN)NC(=O)[C@H](CO)NC(=O)[C@H](CC(C)C)NC(=O)[C@H](CC(=O)O)NC(=O)[C@H](CO)NC(=O)[C@@H](NC(=O)[C@H](Cc1ccccc1)NC(=O)[C@@H](NC(=O)CNC(=O)[C@H](CCC(N)=O)NC(=O)C(C)(C)NC(=O)[C@@H](N)Cc1c[nH]cn1)[C@@H](C)O)[C@@H](C)O)C(=O)N[C@@H](CCC(=O)O)C(=O)N[C@@H](CO)C(=O)N[C@@H](CCCCN)C(=O)N[C@@H](CCCNC(=N)N)C(=O)N[C@@H](C)C(=O)N[C@@H](CCCNC(=N)N)C(=O)N[C@@H](CO)C(=O)N[C@@H](Cc1ccccc1)C(=O)N[C@H](C(=O)N[C@@H](CCC(N)=O)C(=O)N[C@@H](Cc1c[nH]c2ccccc12)C(=O)N[C@@H](CC(C)C)C(=O)N[C@@H](CC(C)C)C(=O)N[C@@H](CCCCNC(=O)CC[C@H](NC(=O)CC[C@H](NC(=O)[C@H](CO)NC(=O)[C@H](CCC(=O)O)NC(=O)[C@H](CO)NC(=O)CC[C@H](NC(=O)CC[C@H](NC(=O)CCCCCCCCCCCCCCCCC(=O)O)C(=O)O)C(=O)O)C(=O)O)C(=O)O)C(=O)N[C@H](C(N)=O)[C@@H](C)O)C(C)C` [Example 69, N^ε28-[(4S)-4-carboxy-4-[[(4S)-4-carboxy-4-[[(2S)-2-[[(2S)-4-carboxy-2-[[(2S)-2-[[(4S)-4-carboxy-4-[[(4S)-4-carboxy-4-(17-carboxyheptadecanoylamino)butanoyl]amino]butanoyl]amino]-3-hydroxypropanoyl]amino]butanoyl]amino]-3-hydroxypropanoyl]amino]butanoyl]amino]butanoyl]-[Aib2,Leu10,Glu15,Lys17,Arg20,Ser21,Leu27,Lys28]-Glucagon amide] (H-H[Aib]QGTFTSDLSKYLESKRARSFVQWLLK([γGlu-γGlu-Ser-Glu-Ser-γGlu-γGlu-C18 diacid])T-NH2; N-terminus assumed), which THT assay Lag time (Ex. 76) [1] is on record?
Answer: 45 h

Question: What about the “Purity loss; 14 days at 37° C.” value [2] of the same molecule?
Answer: 2%
